From US20020115727A1, “Synthesis, methods of using, and compositions of hydroxylated cyclobutylalkylamines” (priority 2000, published 2002)
Read-outs that look alike come from different tables or passages of the source.

Key:
[1] = target: T1, functional uptake of serotonin (5-HT) into synaptosomes prepared from rat whole brain (Rattus norvegicus, UniProt P31652); assay: Functional uptake of serotonin (5-HT) into synaptosomes; assay type: biochemical; conditions: for IC50: rat whole brain synaptosomes, 10 concentrations in duplicate; for inhibition at 10 µM: read-out: inhibition of 5-HT uptake (no IC50 determined)
T1 construct: into synaptosomes prepared from rat whole brain, hypothalamus, or corpora striata, respectively; from tissue; host or cells: rat whole brain synaptosomes
Procedure: (§1) The 1-OH metabolites of N-didesmethylsibutramine (1-OH-DDMS) were tested to determine thir ability to functional uptake of serotonin (5-HT), norepinephrine (NE), or dopamine (DA), into synaptosomes prepared from rat whole brain, hypothalamus, or corpora striata, respectively. In addition, binding was determined at the nonselective muscarinic receptor and the β3-receptor from rat cerebral cortex and rat adipose tissue, respectively. The 1-OH-DDMS compounds tested contain two chiral centers (C2, C4): (2R,4R) (2S,4R), (2R,4S), and (2S,4S).
(§2) The 1-OH metabolites of N-desmethylsibutramine (DMS) were also tested to determine their ability to inhibit functional uptake of serotonin (5-HT), norepinephrine (NE), or dopamine (DA), into synaptosomes prepared from rat whole brain, hypothalamus, or corpora striata, respectively. In addition, binding was determined at the nonselective muscarinic receptor and the β3-receptor from rat cerebral cortex and rat adipose tissue, respectively. The 1-OH-DMS compounds tested contained two chiral centers (C2, C4): (2R,4R), (2S,4S), (2R,4S), and (2S,4R).

[2] = target: T2, functional uptake of norepinephrine (NE) into synaptosomes prepared from rat hypothalamus (Rattus norvegicus, UniProt Q63380); assay: Functional uptake of norepinephrine (NE) into synaptosomes; assay type: biochemical; conditions: 10 concentrations in duplicate
T2 construct: into synaptosomes prepared from rat whole brain, hypothalamus, or corpora striata, respectively; from tissue; host or cells: rat hypothalamus synaptosomes
Procedure: as §1, §2

[3] = target: T3, functional uptake of dopamine (DA) into synaptosomes prepared from rat corpora striata (Rattus norvegicus, UniProt P23977); assay: Functional uptake of dopamine (DA) into synaptosomes; assay type: biochemical; conditions: 10 concentrations in duplicate
T3 construct: into synaptosomes prepared from rat whole brain, hypothalamus, or corpora striata, respectively; from tissue; host or cells: rat corpora striata synaptosomes
Procedure: as §1, §2

[4] = target: T4, β3-receptor from rat adipose tissue (Rattus norvegicus, UniProt P26255); assay: Binding at the β3-receptor
T4 construct: from tissue; host or cells: rat adipose tissue
Procedure: Indeed, certain compounds have been tested. The 1-OH metabolites of N-didesmethylsibutramine (1-OH-DDMS) were tested to determine thir ability to functional uptake of serotonin (5-HT), norepinephrine (NE), or dopamine (DA), into synaptosomes prepared from rat whole brain, hypothalamus, or corpora striata, respectively. In addition, binding was determined at the nonselective muscarinic receptor and the β3-receptor from rat cerebral cortex and rat adipose tissue, respectively. The 1-OH-DDMS compounds tested contain two chiral centers (C2, C4): (2R,4R) (2S,4R), (2R,4S), and (2S,4S).
as §2

[5] = read-out: IC50 Values (nM) for 1-OH Metabolites of DDMS in Functional Uptake Assays: 5-HT
[6] = read-out: IC50 Values (nM) for 1-OH Metabolites of DDMS in Functional Uptake Assays: NE
[7] = read-out: IC50 Values (nM) for 1-OH Metabolites of DDMS in Functional Uptake Assays: DA
[8] = read-out: IC50 Values (nM) for 1-OH Metabolites of DMS in Functional Uptake Assays: NE
[9] = read-out: IC50 Values (nM) for 1-OH Metabolites of DMS in Functional Uptake Assays: DA
[10] = read-out: IC50 Values (nM) for 1-OH Metabolites of DMS in Functional Uptake Assays: 5-HT

T3 sequence (P23977 whole entry): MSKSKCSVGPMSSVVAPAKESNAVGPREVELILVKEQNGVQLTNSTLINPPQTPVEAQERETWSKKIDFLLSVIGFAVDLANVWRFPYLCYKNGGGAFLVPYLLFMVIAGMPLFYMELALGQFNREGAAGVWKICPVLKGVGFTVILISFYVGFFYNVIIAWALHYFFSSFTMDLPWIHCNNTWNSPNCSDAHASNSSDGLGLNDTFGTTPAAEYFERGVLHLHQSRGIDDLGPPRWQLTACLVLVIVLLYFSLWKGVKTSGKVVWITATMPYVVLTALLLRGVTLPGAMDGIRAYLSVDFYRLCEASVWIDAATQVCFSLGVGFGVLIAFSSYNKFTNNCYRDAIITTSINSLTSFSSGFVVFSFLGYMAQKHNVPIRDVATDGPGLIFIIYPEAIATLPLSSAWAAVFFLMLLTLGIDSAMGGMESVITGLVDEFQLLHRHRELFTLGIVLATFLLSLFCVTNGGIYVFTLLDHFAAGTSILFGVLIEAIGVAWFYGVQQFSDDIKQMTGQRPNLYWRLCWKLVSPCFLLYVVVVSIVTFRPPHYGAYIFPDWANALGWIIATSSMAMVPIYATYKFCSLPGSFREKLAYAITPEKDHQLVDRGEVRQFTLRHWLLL
T1 sequence (P31652 whole entry): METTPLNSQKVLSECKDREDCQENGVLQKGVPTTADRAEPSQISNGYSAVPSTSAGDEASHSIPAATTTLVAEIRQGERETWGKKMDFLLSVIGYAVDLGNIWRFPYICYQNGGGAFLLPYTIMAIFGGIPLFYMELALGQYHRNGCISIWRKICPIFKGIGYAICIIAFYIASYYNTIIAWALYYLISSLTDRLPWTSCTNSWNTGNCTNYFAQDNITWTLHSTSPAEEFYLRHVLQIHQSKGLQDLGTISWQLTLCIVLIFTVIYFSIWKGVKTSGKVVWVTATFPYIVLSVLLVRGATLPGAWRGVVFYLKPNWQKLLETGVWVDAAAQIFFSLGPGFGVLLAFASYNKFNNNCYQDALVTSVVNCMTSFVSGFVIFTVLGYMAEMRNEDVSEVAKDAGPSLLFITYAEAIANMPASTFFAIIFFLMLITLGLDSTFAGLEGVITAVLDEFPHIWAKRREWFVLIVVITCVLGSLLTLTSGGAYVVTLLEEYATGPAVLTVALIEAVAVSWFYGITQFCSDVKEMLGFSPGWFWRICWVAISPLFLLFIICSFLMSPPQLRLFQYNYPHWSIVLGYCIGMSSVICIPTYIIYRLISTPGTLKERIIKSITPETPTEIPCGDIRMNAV
T2 sequence (Q63380 1-617): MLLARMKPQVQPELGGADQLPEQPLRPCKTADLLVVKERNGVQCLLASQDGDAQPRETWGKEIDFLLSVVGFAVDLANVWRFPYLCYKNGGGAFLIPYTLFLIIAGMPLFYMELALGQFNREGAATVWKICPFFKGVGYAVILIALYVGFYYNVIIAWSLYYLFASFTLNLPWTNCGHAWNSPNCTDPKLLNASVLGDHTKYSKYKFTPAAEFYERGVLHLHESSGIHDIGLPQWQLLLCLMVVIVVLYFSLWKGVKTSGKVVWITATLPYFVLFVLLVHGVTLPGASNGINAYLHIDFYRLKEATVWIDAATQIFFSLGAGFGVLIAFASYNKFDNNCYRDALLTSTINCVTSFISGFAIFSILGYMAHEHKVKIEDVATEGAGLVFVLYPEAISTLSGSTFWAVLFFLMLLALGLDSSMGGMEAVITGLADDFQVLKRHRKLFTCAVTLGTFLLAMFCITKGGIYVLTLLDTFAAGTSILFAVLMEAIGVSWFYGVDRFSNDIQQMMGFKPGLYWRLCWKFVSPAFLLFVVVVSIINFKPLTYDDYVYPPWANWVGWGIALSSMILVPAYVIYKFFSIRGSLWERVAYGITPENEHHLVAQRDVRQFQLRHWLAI
T4 sequence (P26255 whole entry): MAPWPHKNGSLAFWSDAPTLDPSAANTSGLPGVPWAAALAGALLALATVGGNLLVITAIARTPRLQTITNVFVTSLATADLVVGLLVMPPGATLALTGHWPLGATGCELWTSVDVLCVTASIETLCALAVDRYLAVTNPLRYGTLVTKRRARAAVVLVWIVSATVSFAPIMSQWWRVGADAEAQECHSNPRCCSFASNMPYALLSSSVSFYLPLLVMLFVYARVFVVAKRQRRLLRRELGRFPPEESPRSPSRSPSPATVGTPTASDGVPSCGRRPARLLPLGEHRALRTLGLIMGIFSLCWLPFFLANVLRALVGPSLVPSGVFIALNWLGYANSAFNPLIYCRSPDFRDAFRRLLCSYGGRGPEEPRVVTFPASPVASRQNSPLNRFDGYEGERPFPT

SMILES | IC50 [1, 5] | IC50 [2, 6] | IC50 [3, 7] | inhibition at 10 µM [1] | IC50 [2, 8] | IC50 [3, 9] | IC50 [1, 10] | inhibition at 10 µM ([4]; read-out: inhibition at the β3-receptor (1-OH-DMS compounds)) | inhibition at 10 µM ([4]; read-out: inhibition at the β3-receptor (1-OH-DDMS compounds))
C[C@H](CO)C[C@@H](N)C1(c2ccc(Cl)cc2)CCC1 [(2S,4R)-1-OH-DDMS, (2S,4R)-4-Amino-4-[1-(4-chlorophenyl)cyclobutyl]-2-methyl-butan-1-ol] | 65 nM | 11 nM | 37 nM | – | – | – | – | – | –
CN[C@@H](C[C@H](C)CO)C1(c2ccc(Cl)cc2)CCC1 [(2S,4S)-1-OH-DMS, (2S, 4S)-4-Methylamino-4-[1-(4-chlorophenyl)cyclobutyl]-2-methyl-butan-1-ol] | – | – | – | < 50% | 250 nM | 430 nM | – | – | –
C[C@@H](CO)C[C@@H](N)C1(c2ccc(Cl)cc2)CCC1 [(2R,4R)-1-OH-DDMS, (2R, 4R)-4-Amino-4-[1-(4-chlorophenyl)cyclobutyl]-2-methyl-butan-1-ol] | 34 nM | 4.7 nM | 27 nM | – | – | – | – | – | –
CN[C@H](C[C@H](C)CO)C1(c2ccc(Cl)cc2)CCC1 [(2S,4R)-1-OH-DMS, (2S, 4R)-4-Methylamino-4-[1-(4-chlorophenyl)cyclobutyl]-2-methyl-butan-1-ol] | – | – | – | – | 9.3 nM | 37 nM | 160 nM | 24% | –
CN[C@@H](C[C@@H](C)CO)C1(c2ccc(Cl)cc2)CCC1 [(2R,4S)-1-OH-DMS, (2R, 4S)-4-Methylamino-4-[1-(4-chlorophenyl)cyclobutyl]-2-methyl-butan-1-ol] | – | – | – | < 50% | 74 nM | 2500 nM | – | – | –
CN[C@H](C[C@@H](C)CO)C1(c2ccc(Cl)cc2)CCC1 [(2R,4R)-1-OH-DMS] | – | – | – | – | 2.2 nM | 19 nM | 12 nM | – | –
C[C@@H](CO)C[C@H](N)C1(c2ccc(Cl)cc2)CCC1 [(2R,4S)-1-OH-DDMS, (2R, 4S)-4-Amino-4-[1-(4-chlorophenyl)cyclobutyl]-2-methyl-butan-1-ol] | 2000 nM | 71 nM | 110 nM | – | – | – | – | – | –
C[C@H](CO)C[C@H](N)C1(c2ccc(Cl)cc2)CCC1 [(2S,4S)-1-OH-DDMS, (2S, 4S)-4-Amino-4-[1-(4-chlorophenyl)cyclobutyl]-2-methyl-butan-1-ol] | 1200 nM | 150 nM | 33 nM | – | – | – | – | – | 30%
